Results: patent US20170050957A1, “4-AMINO-6-(HETEROCYCLIC)PICOLINATES AND 6-AMINO-2-(HETEROCYCLIC)PYRIMIDINE-4-CARBOXYLATES AND THEIR USE AS HERBICIDES” (Dow AgroSciences LLC, priority 2013, published 2017)
Where two headings read alike, the source gives them in different places.

What was measured:
[1] = system: Key Grass and Sedge Weeds as well as Grass Crops; assay: Post-emergent Test II herbicidal activity (Table 16); type: in vivo; settings: post-emergence, 336 h, 14 d; for pest or weed control at 35 g/ha: 35 g ai/ha; for pest or weed control at 70 g/ha: 70 g ai/ha; for pest or weed control at 140 g/ha: 140 g ai/ha
Outline: (§1)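 Plants grown in greenhouse (~15 h photoperiod, 23-29 °C day, 22-28 °C night) to first or second true leaf stage, then sprayed post-emergence at 187 L/ha with a high rate and 1/2×, 1/4×, 1/8× and 1/16× dilutions. Injury scored visually after 14 d, 0-100% versus untreated plants.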

[2] = system: Key Broadleaf Weed and Crop Species; assay: Post-emergent Test II herbicidal activity (Table 15); type: in vivo; settings: post-emergence, 336 h, 14 d; for pest or weed control at 35 g/ha: 35 g ai/ha; for pest or weed control at 70 g/ha: 70 g ai/ha; for pest or weed control at 140 g/ha: 140 g ai/ha
Outline: as §1

[3] = Cyperus esculentus, yellow nutsedge (Cyperus esculentus), read-out: Visual Growth Reduction (%) 14 Days After Application, CYPES
[4] = Echinochloa crus-galli, barnyardgrass (Echinochloa crus-galli), read-out: Visual Growth Reduction (%) 14 Days After Application, ECHCG
[5] = Oryza sativa, rice (Oryza sativa), read-out: Visual Growth Reduction (%) 14 Days After Application, ORYSA
[6] = Setaria faberi, giant foxtail (Setaria faberi), read-out: Visual Growth Reduction (%) 14 Days After Application, SETFA
[7] = Triticum aestivum, wheat, spring (Triticum aestivum), read-out: Visual Growth Reduction (%) 14 Days After Application, TRZAS
[8] = Zea mays, maize, corn (Zea mays), read-out: Visual Growth Reduction (%) 14 Days After Application, ZEAMX
[9] = Abutilon theophrasti, velvetleaf (Abutilon theophrasti), read-out: Visual Growth Reduction (%) 14 Days After Application, ABUTH
[10] = Amaranthus retroflexus, redroot pigweed (Amaranthus retroflexus), read-out: Visual Growth Reduction (%) 14 Days After Application, AMARE
[11] = Brassica napus, oilseed rape, canola (Brassica napus), read-out: Visual Growth Reduction (%) 14 Days After Application, BRSNN
[12] = Chenopodium album, lambsquarters (Chenopodium album), read-out: Visual Growth Reduction (%) 14 Days After Application, CHEAL
[13] = Euphorbia heterophylla, wild poinsettia (Euphorbia heterophylla), read-out: Visual Growth Reduction (%) 14 Days After Application, EPHHL
[14] = Helianthus annuus, sunflower (Helianthus annuus), read-out: Visual Growth Reduction (%) 14 Days After Application, HELAN

Cn1ccc2cc(-c3nc(C(=O)O)c(Cl)c(N)c3F)ccc21 [Compound 1.01]
85 to 94%: pest or weed control at 140 g/ha [1, 8]
166 to 168 °C: melting point
0 to 29%: pest or weed control at 35 g/ha [1, 3] | pest or weed control at 70 g/ha [1, 3] | pest or weed control at 140 g/ha [1, 3] | pest or weed control at 35 g/ha [1, 4] | pest or weed control at 35 g/ha [1, 5] | pest or weed control at 70 g/ha [1, 5] | pest or weed control at 140 g/ha [1, 5] | pest or weed control at 35 g/ha [1, 6] | pest or weed control at 70 g/ha [1, 6] | pest or weed control at 140 g/ha [1, 6] | pest or weed control at 35 g/ha [1, 7] | pest or weed control at 70 g/ha [1, 7] | pest or weed control at 140 g/ha [1, 7] | pest or weed control at 35 g/ha [1, 8] | pest or weed control at 35 g/ha [2, 9] | pest or weed control at 70 g/ha [2, 9] | pest or weed control at 70 g/ha [2, 10] | pest or weed control at 35 g/ha [2, 11] | pest or weed control at 70 g/ha [2, 11] | pest or weed control at 140 g/ha [2, 11] | pest or weed control at 35 g/ha [2, 12] | pest or weed control at 70 g/ha [2, 12] | pest or weed control at 140 g/ha [2, 12] | pest or weed control at 35 g/ha [2, 14]
30 to 44%: pest or weed control at 140 g/ha [2, 9]
95 to 100%: pest or weed control at 70 g/ha [1, 8] | pest or weed control at 35 g/ha [2, 13] | pest or weed control at 70 g/ha [2, 13] | pest or weed control at 140 g/ha [2, 13]
75 to 84%: pest or weed control at 140 g/ha [1, 4] | pest or weed control at 70 g/ha [2, 14] | pest or weed control at 140 g/ha [2, 14]
45 to 59%: pest or weed control at 140 g/ha [2, 10]

Nc1cc(-c2ccc3cc[nH]c3c2)nc(C(=O)O)c1Cl [Compound 1.22]
45 to 59%: pest or weed control at 35 g/ha [2, 11] | pest or weed control at 35 g/ha [2, 13]
60 to 74%: pest or weed control at 70 g/ha [1, 6] | pest or weed control at 70 g/ha [2, 11] | pest or weed control at 140 g/ha [2, 11]
172 to 174 °C: melting point
0 to 29%: pest or weed control at 35 g/ha [1, 3] | pest or weed control at 70 g/ha [1, 3] | pest or weed control at 140 g/ha [1, 3] | pest or weed control at 35 g/ha [1, 4] | pest or weed control at 70 g/ha [1, 4] | pest or weed control at 140 g/ha [1, 4] | pest or weed control at 35 g/ha [1, 5] | pest or weed control at 70 g/ha [1, 5] | pest or weed control at 140 g/ha [1, 5] | pest or weed control at 35 g/ha [1, 6] | pest or weed control at 35 g/ha [1, 7] | pest or weed control at 70 g/ha [1, 7] | pest or weed control at 140 g/ha [1, 7] | pest or weed control at 35 g/ha [1, 8] | pest or weed control at 70 g/ha [1, 8] | pest or weed control at 140 g/ha [1, 8] | pest or weed control at 35 g/ha [2, 9] | pest or weed control at 70 g/ha [2, 9] | pest or weed control at 140 g/ha [2, 9] | pest or weed control at 35 g/ha [2, 12] | pest or weed control at 70 g/ha [2, 12] | pest or weed control at 140 g/ha [2, 12]
85 to 94%: pest or weed control at 140 g/ha [1, 6] | pest or weed control at 140 g/ha [2, 10] | pest or weed control at 140 g/ha [2, 13] | pest or weed control at 70 g/ha [2, 14] | pest or weed control at 140 g/ha [2, 14]
75 to 84%: pest or weed control at 35 g/ha [2, 10] | pest or weed control at 70 g/ha [2, 10] | pest or weed control at 70 g/ha [2, 13] | pest or weed control at 35 g/ha [2, 14]

COC(=O)c1nc(-c2c(F)cc3cc[nH]c3c2F)cc(N)c1Cl [Compound 1.27, Methyl 4-amino-3-chloro-6-(5,7-difluoro-1H-indol-6-yl)picolinate]
60 to 74%: pest or weed control at 35 g/ha [2, 9] | pest or weed control at 35 g/ha [2, 10]
169 to 171 °C: melting point
0 to 29%: pest or weed control at 35 g/ha [1, 3] | pest or weed control at 70 g/ha [1, 3] | pest or weed control at 140 g/ha [1, 3] | pest or weed control at 35 g/ha [1, 4] | pest or weed control at 70 g/ha [1, 4] | pest or weed control at 140 g/ha [1, 4] | pest or weed control at 35 g/ha [1, 5] | pest or weed control at 70 g/ha [1, 5] | pest or weed control at 140 g/ha [1, 5] | pest or weed control at 35 g/ha [1, 6] | pest or weed control at 70 g/ha [1, 6] | pest or weed control at 140 g/ha [1, 6] | pest or weed control at 35 g/ha [1, 7] | pest or weed control at 70 g/ha [1, 7] | pest or weed control at 140 g/ha [1, 7] | pest or weed control at 35 g/ha [1, 8] | pest or weed control at 70 g/ha [1, 8] | pest or weed control at 140 g/ha [1, 8] | pest or weed control at 35 g/ha [2, 14] | pest or weed control at 70 g/ha [2, 14] | pest or weed control at 140 g/ha [2, 14]
95 to 100%: pest or weed control at 70 g/ha [2, 10] | pest or weed control at 140 g/ha [2, 10] | pest or weed control at 70 g/ha [2, 11] | pest or weed control at 140 g/ha [2, 11] | pest or weed control at 35 g/ha [2, 13] | pest or weed control at 70 g/ha [2, 13] | pest or weed control at 140 g/ha [2, 13]
85 to 94%: pest or weed control at 70 g/ha [2, 9] | pest or weed control at 140 g/ha [2, 9] | pest or weed control at 35 g/ha [2, 11] | pest or weed control at 35 g/ha [2, 12] | pest or weed control at 70 g/ha [2, 12] | pest or weed control at 140 g/ha [2, 12]
